The subject of one experiment is protein kinase FLT3. The experiment can be described thus: Phosphorylation of FLT3 in AML cells. It counts as cell-based, human. The settings on record: MV-4-11, MOLM-13 and MOLM-14 cell lines; 4 hours; compounds 0.01-3 μM, PKC412 1 μM. The protocol: (§1) In cells having FLT3 gene and/or FLT3/ITD mutant gene, specifically, human acute myeloid leukemia cells MV4-11 (expressing FLT3/ITD mutant gene) cell strain and human acute myeloid leukemia cells MOLM-13 and MOLM-14 (expressing FLT3/ITD mutant gene and wild-type FLT3 gene) cell strains, Compound 5, Compound 135 and a FLT3 kinase inhibitor, PKC412 (purchased from Hao Yuan Chemexpress Company, Shanghai), which was used as the control, were evaluated for their effects in cells on phosphorylation of FLT3 and FLT3/ITD protein kinase and phosphorylation of the closely-related STATS protein which is downstream of FLT3 signaling pathways, as well as their effects on phosphorylation of other relevant protein kinases such as ERK and AKT, by assaying a number of cellular biochemical and functional endpoints. In addition, the effects on C-Myc and phosphorylation of the transcription factor NF-κB subunit p65 was also examined (FIGS. 1a-1f). Compound 5 and Compound 135 at different concentrations (0 μM, 0.01 μM, 0.03 μM, 0.1 μM, 0.3 μM, 1 μM, 3 μM in DMSO) and the FLT3 kinase inhibitor PKC412 (1 μM in DMSO) were used to treat acute myeloid leukemia cells MV-4-11, MOLM13 and MOLM-14 that had FLT3 and/or FLT3/ITD gene for 4 hours, respectively, and then the samples were collected. The effects of the compounds on the phosphorylation of proteins such as STATS, C-Myc, ERK, NF-κB p65, AKT in cells were tested (FIGS. 1a-1f).

Experiment [1] in a line: Phosphorylation of STATS downstream of FLT3 in AML cells. In kind it is cell-based, human. The settings on record: MV-4-11, MOLM13 and MOLM-14; 4 hours; compounds 0.01-3 μM, PKC412 1 μM. The protocol:
as §1

In another experiment the test system is C-Myc. The experiment can be described thus: Degradation of C-Myc in AML cells. In kind it is cell-based, human. Conditions: MV-4-11, MOLM13 and MOLM-14; 4 hours; compounds 0.01-3 μM, PKC412 1 μM. The procedure: as §1
Another experiment relates to BaF3. Briefly: Proliferation of BaF3 cells, CCK8 cell viability assay. In kind it is cell-based. The settings on record: Mus musculus, 72 hours. In a few lines:
(§2)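 Murine BaF3 cells made IL-3-independent by retroviral transduction of human kinase domains fused to N-terminal TEL or TPR fragments; parental BaF3 included. Living cells quantified by CCK8 (dehydrogenase activity) read-out, giving GI50 in μM.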
(In general: Tetrazolium dyes change colour on reduction, which living cells bring about.)

A further experiment has as its system Tel-cKit-BaF3. The experiment can be described thus: Proliferation of Tel-cKit-BaF3 cells, CCK8 cell viability assay. In kind it is cell-based, mouse. The settings on record: Mus musculus; 72 hours, CCK8; stably expressing cKIT kinase. Summed up:
(§3)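 Mouse BaF3 ± TEL-kinase fusion (human cKIT/PDGFRα/PDGFRβ kinase region, MSCV-Puro retrovirus, IL-3 removed → kinase-addicted). Viability by CCK8 (dehydrogenase), GI50 μM.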

Another experiment has as its system Tel-cKit/T670I-BaF3. The experiment can be described thus: Proliferation of Tel-cKit/T670I-BaF3 cells, CCK8 cell viability assay. It counts as cell-based. The settings on record: Mus musculus, 72 hours, stably expressing cKIT/T670I. Summed up:
as §3

The subject of a further experiment is Tel-FLT3-BaF3. Briefly: Proliferation of Tel-FLT3-BaF3 cells, CCK8 cell viability assay. Conditions: Mus musculus, 72 hours, stably expressing FLT3 kinase. It counts as cell-based. Summed up:
as §2

In a further experiment the test system is FLT3-ITD-BaF3. Briefly: Proliferation of FLT3-ITD-BaF3 cells, CCK8 cell viability assay. In kind it is cell-based. Conditions: Mus musculus, 72 hours, stably expressing FLT3/ITD. Summed up:
as §2

For another experiment, the system named is TEL-PDGFRα-BaF3. Briefly: Proliferation of TEL-PDGFRα-BaF3 cells, CCK8 cell viability assay. The settings on record: Mus musculus, 72 hours, stably expressing PDGFRα kinase. In kind it is cell-based. In a few lines: as §3
Another experiment deals with TEL-PDGFRβ-BaF3. Briefly: Proliferation of TEL-PDGFRβ-BaF3 cells, CCK8 cell viability assay. In kind it is cell-based. The settings on record: Mus musculus, 72 hours, stably expressing PDGFRβ kinase. In a few lines:
as §3

Another experiment relates to TEL-VEGFR2-BaF3. The experiment can be described thus: Proliferation of TEL-VEGFR2-BaF3 cells, CCK8 cell viability assay. In kind it is cell-based. The settings on record: Mus musculus, 72 hours, stably expressing VEGFR2 kinase. In a few lines: as §2
Experiment [2] relates to human acute myeloid leukemia cell strain MOLM-13. The experiment can be described thus: Proliferation of MOLM-13 cells, Cell Titer-Glo. Conditions: summary of Table 3. In kind it is cell-based. The protocol: (§4) In addition, in this example the inhibitory activity of preferred compounds (Compound 5 and Compound 135) was tested against the following cell strains: human acute myeloid leukemia cell strain MV4-11 (expressing FLT3/ITD mutant gene), human acute myeloid leukemia cell strain MOLM-13 (expressing FLT3/ITD mutant gene and wild-type FLT3 gene), human acute myeloid leukemia cell strain MOLM-14 (expressing FLT3/ITD mutant gene and wild-type FLT3 gene), human acute myeloid leukemia cell strain OCI-AML-3 (expressing FLT3 A680V mutant gene), human chronic lymphatic leukemia cell strain MEC-1, Chinese hamster lung (CHL) cells, Chinese hamster ovary (CHO) cells, wherein all the cells were purchased from ATCC. In the example the compounds of the present invention were added respectively into the above cells at different concentrations (0.000508 μM, 0.00152 μM, 0.00457 μM, 0.0137 μM, 0.0411 μM, 0.123 μM, 0.370 μM, 1.11 μM, 3.33 μM, 10 μM in DMSO) and the cells were incubated for 72 hours. The number of viable cells was determined by quantification of ATP in living cells using Cell Titer-Glo® (Promega, the USA) Luminescent Cell Viability Assay kit and thereby GI50 was calculated.
In general terms: Cellular ATP, detected with luciferase, serves as a proxy for viable cell number.

In experiment [3] the test system is human acute myeloid leukemia cell strain MV4-11. Briefly: Proliferation of MV4-11 cells, Cell Titer-Glo. Conditions: summary of Table 3. It counts as cell-based. The protocol:
as §4

The test system of experiment [4] is human acute myeloid leukemia cell strain MOLM-14. The experiment can be described thus: Proliferation of MOLM-14 cells, Cell Titer-Glo. It counts as cell-based. Conditions: summary of Table 3. The protocol: as §4
For a further experiment, the system named is P210-BaF3. Briefly: Proliferation of P210-BaF3 cells, CCK8 cell viability assay. It counts as cell-based. Conditions: Mus musculus, 72 hours, stably expressing BCR-ABL mutant activated kinase. In a few lines:
as §2

For a further experiment, the system named is P210/T315I-BaF3. The experiment can be described thus: Proliferation of P210/T315I-BaF3 cells, CCK8 cell viability assay. The settings on record: Mus musculus, 72 hours, stably expressing BCR-ABL/T315I. It counts as cell-based. In a few lines:
as §2

A further experiment deals with Tel-RET-BaF3. The experiment can be described thus: Proliferation of Tel-RET-BaF3 cells, CCK8 cell viability assay. In kind it is cell-based. Conditions: Mus musculus, 72 hours, stably expressing RET kinase.

`CO[C@@H]1[C@H](N(C)C(=O)c2ccccc2)C[C@H]2O[C@]1(C)n1c3ccccc3c3c4c(c5c6ccccc6n2c5c31)C(=O)NC4` [PKC412, reference compound]: in the experiment with protein kinase FLT3, the “phosphorylation of the protein kinase FLT3” value is “strongly inhibited”. In [1], the “phosphorylation of STATS” value was “strongly inhibited”. Moreover, the “degradation of C-Myc” value with C-Myc is “strongly inhibited”.
The GI50 is the concentration that inhibits growth by half. Lower therefore signals more potent growth inhibition. With `CC(=O)Nc1cc(Oc2ccc(NC(=O)Cc3ccc(C(F)(F)F)cc3C(F)(F)F)cc2)ncn1` [Example 3, N-[4-(6-acetylamino-pyrimidin-4-yloxy)-phenyl]-2-(2,4-bis-trifluoromethyl-phenyl)-acetamide], the GI50 was over 10 µM in the experiment on BaF3; 1.42 µM in the experiment with Tel-cKit-BaF3; 8.9 µM with Tel-cKit/T670I-BaF3; 0.325 µM with Tel-FLT3-BaF3; 0.109 µM with FLT3-ITD-BaF3; 0.007 µM with TEL-PDGFRα-BaF3. Moreover, the results for the 50% growth inhibitory concentration (GI50) with TEL-PDGFRβ-BaF3 and with TEL-VEGFR2-BaF3 were 0.022 µM and 1.09 µM, respectively. For the same molecule, in experiment [2], the “inhibition of MOLM13 (in words)” value was “selectively and strongly inhibited”. The “inhibition of MV4-11 (in words)” value in [3] is “selectively and strongly inhibited”. The “inhibition of MOLM14 (in words)” value in experiment [4] is “selectively and strongly inhibited”.
`COCCNc1cc(Oc2ccc(NC(=O)Nc3ccc(CN4CCN(C)CC4)cc3)cc2)ncn1` [Example 172, 1-{4-[6-(2-methoxy-ethylamino)-pyrimidin-4-yloxy]-phenyl}-3-[4-(4-methyl-piperazin-1-ylmethyl)-phenyl]-urea]: the GI50 with BaF3 was over 10 µM; in the experiment on P210-BaF3 it was over 10 µM; with P210/T315I-BaF3 it was over 10 µM; in the experiment with Tel-cKit-BaF3 it was over 10 µM; in the experiment with Tel-cKit/T670I-BaF3 it was over 10 µM; in the experiment with Tel-FLT3-BaF3, 1.1 µM. The GI50 is 0.34 µM in the experiment on FLT3-ITD-BaF3; over 10 µM with Tel-RET-BaF3; 0.11 µM in the experiment on TEL-PDGFRα-BaF3; 0.75 µM in the experiment with TEL-PDGFRβ-BaF3; 8.3 µM in the experiment with TEL-VEGFR2-BaF3.
